Assay results: patent publication US20070037752A1, “Novel alanyl-amino peptidase inhibitors for functionally influencing different cells and treating immunological, inflammatory, neuronal, and other diseases” (priority 2003, published 2007)
Non-standard residues stand in square brackets, D forms with d. Residues, ends and D or L forms follow the SMILES beside them. *: point of attachment. OBn = c1ccc(CO*)cc1

The molecules below were run against alanyl aminopeptidases (APN) (Homo sapiens, UniProt P15144) (assay: Inhibition of alanyl aminopeptidase enzymatic activity, fluorogenic substrate (Ala)2-rhodamine 110). Details: Table 12; read-out: IC50APN.
Format: biochemical
Description: The inhibition characteristics measured are referred to as IC-50 values or ID50 values (the latter marked with “*”) for said enzyme. The enzymatic activity was determined by means of the fluorogenic substrate/product (Ala)2-rhodamine 110.

Sequence of alanyl aminopeptidases (APN) (P15144 whole entry, species assumed): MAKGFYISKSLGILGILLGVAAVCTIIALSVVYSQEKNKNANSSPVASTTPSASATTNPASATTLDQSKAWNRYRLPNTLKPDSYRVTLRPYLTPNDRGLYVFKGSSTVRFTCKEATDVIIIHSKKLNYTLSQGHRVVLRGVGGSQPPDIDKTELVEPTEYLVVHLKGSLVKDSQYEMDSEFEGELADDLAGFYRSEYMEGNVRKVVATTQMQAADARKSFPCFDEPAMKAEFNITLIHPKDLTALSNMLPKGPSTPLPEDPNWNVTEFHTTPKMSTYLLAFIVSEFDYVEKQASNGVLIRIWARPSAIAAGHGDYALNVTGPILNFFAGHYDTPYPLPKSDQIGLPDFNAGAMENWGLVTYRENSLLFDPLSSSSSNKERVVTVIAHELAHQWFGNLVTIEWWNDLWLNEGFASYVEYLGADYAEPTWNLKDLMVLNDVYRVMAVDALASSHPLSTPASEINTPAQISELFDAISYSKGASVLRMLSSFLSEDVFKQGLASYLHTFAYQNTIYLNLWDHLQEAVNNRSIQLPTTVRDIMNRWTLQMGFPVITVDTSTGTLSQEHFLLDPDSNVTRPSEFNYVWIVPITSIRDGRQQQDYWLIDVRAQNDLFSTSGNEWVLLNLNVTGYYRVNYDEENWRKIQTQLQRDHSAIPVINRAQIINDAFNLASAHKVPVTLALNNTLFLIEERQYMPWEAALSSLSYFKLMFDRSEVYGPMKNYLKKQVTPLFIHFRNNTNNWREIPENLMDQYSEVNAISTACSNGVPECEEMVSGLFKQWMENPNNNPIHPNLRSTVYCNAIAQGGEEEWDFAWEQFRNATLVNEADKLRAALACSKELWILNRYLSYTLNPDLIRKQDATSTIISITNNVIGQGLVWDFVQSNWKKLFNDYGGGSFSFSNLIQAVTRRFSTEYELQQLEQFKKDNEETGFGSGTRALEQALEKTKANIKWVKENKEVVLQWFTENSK

Row | SMILES | IC50 [µM]
1 | CCC(C)C(NC(=O)C(N)CC(=O)OCc1ccccc1)C(=O)NC(Cc1ccccc1)C(=O)OC (stereo not drawn) [A12.016] (H-Asp(OBn)-Ile-Phe-OMe; configuration not given here) | 8.6
2 | C/C(=N/O)c1ccc2c(c1)OCCOCCOc1cc(/C(C)=N\O)ccc1OCCOCCO2 [A12.017] | 8.6
3 | CSCCC1NC(=S)N(Cc2ccccc2)C1=O (stereo not drawn) [A12.027] | 14.1
4 | CC1=C(C#N)C(=O)N(CCCO)C(=O)/C1=C\c1ccc(-c2ccc(Br)cc2)o1 [A12.030] | 16
5 | Cc1ccc(NC(=O)/C(=C\c2ccco2)NC(=O)c2ccccc2Cl)cc1 [A12.033] | 17.9
6 | O=C(N/C(=C\c1ccco1)C(=O)N1CCCC(CO)C1)c1ccccc1 (stereo not drawn) [A12.035] | 19
7 | CCOC(=O)C(NC(=O)c1ccccc1)(Nc1ccc(OC)cc1OC)C(F)(F)F (stereo not drawn) [A12.036] | 19
8 | COc1ccc(C[C@@H](N)C(=O)N[C@H]2[C@H](O)[C@H](n3cnc4c(N(C)C)ncnc43)O[C@@H]2CO)cc1 [A12.037] | 20.9
9 | NCC(O)CNCCc1ccccc1 (stereo not drawn) [A12.039] | 21.2
10 | O=C(CCOC(c1ccc(F)cc1)c1ccc(F)cc1)NO [A12.041] | 21.8
11 | CC1=C(C#N)C(=O)N(CC(C)O)C(=O)/C1=C/c1ccc(-c2cccc(Cl)c2C)o1 (stereo not drawn) [A12.048] | 28.6
12 | CCOC(=O)C(NC(=O)c1ccccc1)(N1CCC(Cc2ccccc2)CC1)C(F)(F)F (stereo not drawn) [A12.049] | 29.9
13 | Cc1ccc(C(=O)N/C(=C/c2ccco2)C(=O)N(C)C)cc1 [A12.052] | 32.5
14 | COc1ccc(C(OCCC(=O)NO)c2ccccc2)cc1 (stereo not drawn) [A12.053] | 33
15 | Cc1ccccc1NC(=O)C1C(c2cccs2)C(C#N)=C(SCC(=O)Nc2ccc(Br)cc2)NC1(C)O (stereo not drawn) [A12.054] | 33.9
16 | CC(C)C1N=C(Cc2cccnc2)N(CCCN2CCCC2=O)C1C(=O)NCc1ccccc1 (stereo not drawn) [A12.055] | 34
17 | COC(=O)C(NC(=O)c1ccccc1)(Nc1sc2c(c1C#N)CCC(C(C)(C)C)C2)C(F)(F)F (stereo not drawn) [A12.056] | 43.6
18 | CSCCC(Nc1ncnc2c1oc1ccccc12)C(=O)O (stereo not drawn) [A12.060] | 48.4
19 | CSCCC(NC(=O)c1ccc(C(F)(F)F)cc1)C(=O)NO (stereo not drawn) [A12.061] | 51.2
20 | O=C1Nc2cc(C(=O)N3CCN(c4ccccc4)CC3)ccc2NC1CSCc1ccccc1F (stereo not drawn) [A12.065] | 61.5

Now from value to molecule:

Row | IC50 [µM] | SMILES
21 | 7.3 | NCCCC[C@@H](N)C(=O)N[C@H](Cc1ccccc1)C(=O)N[C@H](Cc1ccc(O)cc1)C(=O)O [A12.011] (H-[dK]-[dF]-[dY]-OH)
22 | 7.5 | CCOc1ccc(CC(=O)NO)cc1 [A12.013]
23 | 7.5 | O=C(ON1C(=O)CCC1=O)C1CCC(=O)N1C(=O)OCc1ccccc1 (stereo not drawn) [A12.015]
24 | 11 | Cc1ccc(C(=O)N/C(=C\c2ccco2)C(=O)N2CC3CC(C2)c2cccc(=O)n2C3)cc1 (stereo not drawn) [A12.019]
25 | 11.5 | O=C(CS(=O)(=O)c1ccc(Cl)cc1)NO [A12.021]
26 | 23.8 | CCCOC(=O)c1cc(-c2ccc(/C=C3\C(=O)N(CCCO)C(=O)C(C#N)=C3C)o2)ccc1Cl [A12.022]
27 | 11.8 | CN(C)CCCN1CCN(c2nc(N(C)CC(=O)O)c3ncn(Cc4ccc([N+](=O)[O-])cc4)c3n2)CC1 [A12.023]
28 | 12 | O=C(O)SCCC1NC(=S)N(c2ccccc2)C1=O (stereo not drawn) [A12.024]
29 | 13.1 | CC(C)COc1ccc(C(=O)N/C(=C\c2ccco2)C(=O)N2CCOCC2)cc1 [A12.025]
30 | 13.4 | COc1ccc(Cl)cc1NC(O)CCN1C(=O)C2C3C=CC(C3)C2C1O (stereo not drawn) [A12.026]
31 | 14.1 | O=C(CCCCCN1C(=O)c2cccc3cccc(c23)C1=O)NO [A12.028]
32 | 14.2 | Cc1ccc(C(OCCC(=O)NO)c2ccc(C)cc2)cc1 [A12.029]
33 | 17.1 | O=C(O)C1N=NC(c2ccc(F)cc2)=CN1O (stereo not drawn) [A12.031]
34 | 18.2 | CC(=O)c1cccc(-c2ccc(/C=C3/C(=O)N(CCCO)C(=O)C(C#N)=C3C)o2)c1 [A12.034]
35 | 21.1 | O=C(N/C(=C\c1ccco1)C(=O)N1CCC(O)CC1)c1ccccc1 [A12.038]
36 | 21.7 | CCOC(=O)C(NC(=O)c1cccc(Cl)c1)(Nc1ccc(OC)cc1OC)C(F)(F)F (stereo not drawn) [A12.040]
37 | 23 | CN(C)CCCN1CCN(c2nc(N(C)CC(=O)O)c3ncn(Cc4ccc(C(F)(F)F)cc4)c3n2)CC1 [A12.042]
38 | 25.2 | CC(CCc1ccccc1)C(=O)NO (stereo not drawn) [A12.044]
39 | 26.9 | O=C(NC(Sc1ccncn1)C(=O)c1ccccc1)c1ccccc1 (stereo not drawn) [A12.045]
40 | 28.1 | N#C/C(=C\c1ccc(N2Cc3ccccc3C2)cc1)C(=O)NCC1CCCO1 (stereo not drawn) [A12.047]
41 | 47.2 | CC1=C(C#N)C(=O)N(CC(C)O)C(=O)/C1=C/c1ccc(-c2ccc(Br)cc2)o1 (stereo not drawn) [A12.058]
42 | 55 | Cc1ccc(/C=C(\NC(=O)c2ccccc2)C(=O)NCCN2CCOCC2)o1 [A12.063]
43 | 80.6 | N#CCCCCCCCCC(=O)NO [A12.069]
44 | 94.8 | O=C(OCCN1CCCCC1)C1c2ccccc2Oc2ccccc21 [A12.070]
45 | 117 | COc1c(OCC(O)C(C)(C)O)ccc2c1N=C1OC=CC1C2OC (stereo not drawn) [A12.072]

Same assay, conditions: Table 13; read-out: IC50APN

Row | SMILES | IC50 [µM]
46 | CCOC(=O)c1ccc(-c2ccc(/C=C3\C(=O)N(CCO)C(=O)C(C#N)=C3C)o2)cc1 [A13.002] | 2.7
47 | COC(=O)c1ccc(-c2ccc(/C=C3\C(=O)N(CCCO)C(=O)C(C#N)=C3C)o2)cc1 [A13.003] | 5
48 | CC1=C(C#N)C(=O)N(CCCO)C(=O)/C1=C\c1ccc(-c2ccc(Br)cc2)o1 [A13.007] | 16
49 | CC(=O)c1cccc(-c2ccc(/C=C3/C(=O)N(CCCO)C(=O)C(C#N)=C3C)o2)c1 [A13.009] | 18.2
50 | CCCOc1[nH]c(/N=C/c2ccccc2)c(C#N)c1C#N [A13.010] | 20
51 | CC1=C(C#N)C(O)=NC(=O)/C1=C/c1ccc(-c2ccc(Cl)c(C(=O)OC(C)C)c2)o1 [A13.012] | 21.4
52 | CCCOC(=O)c1cc(-c2ccc(/C=C3\C(=O)NC(=O)C(C#N)=C3C)o2)ccc1Cl [A13.016] | 36.8
53 | Cc1ccccc1NC(=O)C1C(c2cccs2)C(C#N)=C(SCC(=O)Nc2ccc(Br)cc2)NC1(C)O (stereo not drawn) [A13.019] | 33.9
54 | CC1CCc2c(sc(NC(=O)C(C(F)(F)F)C(F)(F)F)c2C#N)C1 (stereo not drawn) [A13.022] | 51.3

Further lines, results first:

Row | IC50 [µM] | SMILES
55 | 1.2 | CC1=C(C#N)C(=O)N(CCO)C(=O)/C1=C\c1ccc(-c2cc(Cl)ccc2Cl)o1 [A13.001]
56 | 6.3 | COC(=O)c1cccc(-c2ccc(/C=C3\C(=O)N(CCO)C(=O)C(C#N)=C3C)o2)c1 [A13.004]
57 | 10.5 | Cc1ccc(/C=N/NC(=O)c2cccc(Cl)c2)o1 [A13.005]
58 | 15.2 | COC(=O)c1cc(-c2ccc(/C=C3\C(=O)N(CCCO)C(=O)C(C#N)=C3C)o2)ccc1Cl [A13.006]
59 | 18.1 | C=CCOC(=O)c1cc(-c2ccc(/C=C3/C(=O)N(CCCO)C(=O)C(C#N)=C3C)o2)ccc1Cl [A13.008]
60 | 20.8 | CCCN1C(=O)C(C#N)=C(C)/C(=C\c2ccc(-c3cccc(Cl)c3C)o2)C1=O [A13.011]
61 | 28.1 | N#C/C(=C\c1ccc(N2Cc3ccccc3C2)cc1)C(=O)NCC1CCCO1 (stereo not drawn) [A13.013]
62 | 28.6 | CC1=C(C#N)C(=O)N(CC(C)O)C(=O)/C1=C/c1ccc(-c2cccc(Cl)c2C)o1 (stereo not drawn) [A13.014]
63 | 29.3 | C=CCN1C(=O)C(C#N)=C(C)/C(=C\c2ccc(-c3cc(C)c(C)cc3[N+](=O)[O-])o2)C1=O [A13.015]
64 | 32 | CCCOC(=O)c1cc(-c2ccc(/C=C3/C(=O)N(CC(C)O)C(=O)C(C#N)=C3C)o2)ccc1Cl (stereo not drawn) [A13.017]
65 | 32.4 | CC1=C(C#N)C(O)=NC(=O)/C1=C/c1ccc(-c2ccc(Cl)cc2Cl)o1 [A13.018]
66 | 41 | CCOC(=O)c1cc(-c2ccc(/C=C3\C(=O)N(CCCO)C(=O)C(C#N)=C3C)o2)ccc1Cl [A13.020]
67 | 47.2 | CC1=C(C#N)C(=O)N(CC(C)O)C(=O)/C1=C/c1ccc(-c2ccc(Br)cc2)o1 (stereo not drawn) [A13.021]
68 | 54 | CCCOC(=O)c1cc(-c2ccc(/C=C3\C(=O)N(CCO)C(=O)C(C#N)=C3C)o2)ccc1Cl [A13.023]
69 | 125 | CC1=C(C#N)C(=O)N(CCO)C(=O)/C1=C\c1ccc(-c2ccc(C)c(Cl)c2)o1 [A13.024]

Same assay, conditions: Table 14

Row | SMILES | IC50APN
70 | COC(=O)C1=C(N)N2C(=O)CSC2=C(C(=O)OC)C1 [A14.001] | “positively very highly active”, means beyond measurement- scale”

Same assay, conditions: Table 14; read-out: IC50APN

Row | IC50 [µM] | SMILES
71 | 5.9 | COC(=O)C1=C(N)N2C(=O)CSC2=C(C(=O)OC(C)C)C1 [A14.002]
72 | 23.1 | CCOC(=O)C1=C2SCC(=O)N2C(N)=C(C#N)C1 [A14.003]
